Assay results from patent US20200270309A1, “MALEIMIDE GROUP-MODIFIED ANGIOGENESIS INHIBITOR HM-1 AND USE THEREOF” (NANJING ANJI BIOLOGICAL TECHNOLOGY CO., LTD, priority 2017, published 2020).
Blank lines part the entries; values can stand above or below the molecule they belong to. Peptide text beside a SMILES is read from it. * marks the point of attachment. X47 = O=C1C=CC(=O)N1c1ccccc1CCCCC(=O)*; X62 = O=C1C=CC(=O)N1CCCCCCCCCCCCC(=O)*; X48 = O=C1C=CC(=O)N1CCCCCCCCCCCC(=O)*; X50 = O=C1C=CC(=O)N1c1ccc(CC(=O)*)cc1; X81 = O=C1C=CC(=O)N1c1ccccc1CCCC(=O)*; X77 = O=C1C=CC(=O)N1CCCCCCCCCCC(=O)*; X80 = O=C1C=CC(=O)N1c1ccccc1CCC(=O)*; X51 = O=C1C=CC(=O)N1c1ccccc1CC(=O)*; X67 = O=C1C=CC(=O)N1CCCCCCCCCC(=O)*; X82 = O=C1C=CC(=O)N1CCCCCCCCC(=O)*

Assay: Half-lives and pharmacokinetic parameters of polypeptides vs HM-1
Conditions: in vivo; for half-life: T1/2β (half-life)

Structure (SMILES): C[C@H](NC(=O)CNC(=O)[C@H](CCCNC(=N)N)NC(=O)Cc1ccccc1N1C(=O)C=CC1=O)C(=O)N[C@@H](CC(=O)O)C(=O)N[C@@H](CCCNC(=N)N)C(=O)N[C@@H](C)C(=O)NCC(=O)NCC(=O)NCC(=O)NCC(=O)N[C@@H](CCCNC(=N)N)C(=O)NCC(=O)N[C@@H](CC(=O)O)C(=O)O [X13] (X51-RGADRAGGGGRGD-OH)
AUC(0-inf): 33600 ± 7340 ng·h/mL
MRT inf: 60 ± 12.5 h
clearance: 0.497 mL/min/kg
half-life: 41.58 ± 0.34 h

Structure (SMILES): C[C@H](NC(=O)CNC(=O)[C@H](CCCNC(=N)N)NC(=O)CCc1ccccc1N1C(=O)C=CC1=O)C(=O)N[C@@H](CC(=O)O)C(=O)N[C@@H](CCCNC(=N)N)C(=O)N[C@@H](C)C(=O)NCC(=O)NCC(=O)NCC(=O)NCC(=O)N[C@@H](CCCNC(=N)N)C(=O)NCC(=O)N[C@@H](CC(=O)O)C(=O)O [X14] (X80-RGADRAGGGGRGD-OH)
AUC(0-inf): 29100 ± 7660 ng·h/mL
MRT inf: 52 ± 13.5 h
clearance: 0.573 mL/min/kg
half-life: 36.04 ± 0.32 h

Structure (SMILES): C[C@H](NC(=O)CNC(=O)[C@H](CCCNC(=N)N)NC(=O)CCCc1ccccc1N1C(=O)C=CC1=O)C(=O)N[C@@H](CC(=O)O)C(=O)N[C@@H](CCCNC(=N)N)C(=O)N[C@@H](C)C(=O)NCC(=O)NCC(=O)NCC(=O)NCC(=O)N[C@@H](CCCNC(=N)N)C(=O)NCC(=O)N[C@@H](CC(=O)O)C(=O)O [X15] (X81-RGADRAGGGGRGD-OH)
AUC(0-inf): 34400 ± 8520 ng·h/mL
MRT inf: 61.5 ± 10 h
clearance: 0.485 mL/min/kg
half-life: 42.65 ± 0.25 h

Structure (SMILES): C[C@H](NC(=O)CNC(=O)[C@H](CCCNC(=N)N)NC(=O)Cc1ccc(N2C(=O)C=CC2=O)cc1)C(=O)N[C@@H](CC(=O)O)C(=O)N[C@@H](CCCNC(=N)N)C(=O)N[C@@H](C)C(=O)NCC(=O)NCC(=O)NCC(=O)NCC(=O)N[C@@H](CCCNC(=N)N)C(=O)NCC(=O)N[C@@H](CC(=O)O)C(=O)O [X37] (X50-RGADRAGGGGRGD-OH)
AUC(0-inf): 27200 ± 7210 ng·h/mL
MRT inf: 48.7 ± 13.6 h
clearance: 0.612 mL/min/kg
half-life: 33.76 ± 0.28 h

Continued, values first:

AUC(0-inf): 27900 ± 7570 ng·h/mL
MRT inf: 50 ± 12.6 h
clearance: 0.597 mL/min/kg
half-life: 34.68 ± 0.31 h
Structure (SMILES): C[C@H](NC(=O)CNC(=O)[C@H](CCCNC(=N)N)NC(=O)CCCCCCCCN1C(=O)C=CC1=O)C(=O)N[C@@H](CC(=O)O)C(=O)N[C@@H](CCCNC(=N)N)C(=O)N[C@@H](C)C(=O)NCC(=O)NCC(=O)NCC(=O)NCC(=O)N[C@@H](CCCNC(=N)N)C(=O)NCC(=O)N[C@@H](CC(=O)O)C(=O)O [X8] (X82-RGADRAGGGGRGD-OH)

AUC(0-inf): 31200 ± 7350 ng·h/mL
MRT inf: 56 ± 13.3 h
clearance: 0.537 mL/min/kg
half-life: 38.78 ± 0.31 h
Structure (SMILES): C[C@H](NC(=O)CNC(=O)[C@H](CCCNC(=N)N)NC(=O)CCCCCCCCCN1C(=O)C=CC1=O)C(=O)N[C@@H](CC(=O)O)C(=O)N[C@@H](CCCNC(=N)N)C(=O)N[C@@H](C)C(=O)NCC(=O)NCC(=O)NCC(=O)NCC(=O)N[C@@H](CCCNC(=N)N)C(=O)NCC(=O)N[C@@H](CC(=O)O)C(=O)O [X9] (X67-RGADRAGGGGRGD-OH)

AUC(0-inf): 31200 ± 7210 ng·h/mL
MRT inf: 55.8 ± 12.9 h
clearance: 0.535 mL/min/kg
half-life: 38.64 ± 0.25 h
Structure (SMILES): C[C@H](NC(=O)CNC(=O)[C@H](CCCNC(=N)N)NC(=O)CCCCCCCCCCN1C(=O)C=CC1=O)C(=O)N[C@@H](CC(=O)O)C(=O)N[C@@H](CCCNC(=N)N)C(=O)N[C@@H](C)C(=O)NCC(=O)NCC(=O)NCC(=O)NCC(=O)N[C@@H](CCCNC(=N)N)C(=O)NCC(=O)N[C@@H](CC(=O)O)C(=O)O [X10] (X77-RGADRAGGGGRGD-OH)

AUC(0-inf): 25100 ± 8260 ng·h/mL
MRT inf: 44.9 ± 11.6 h
clearance: 0.665 mL/min/kg
half-life: 31.08 ± 0.29 h
Structure (SMILES): C[C@H](NC(=O)CNC(=O)[C@H](CCCNC(=N)N)NC(=O)CCCCCCCCCCCN1C(=O)C=CC1=O)C(=O)N[C@@H](CC(=O)O)C(=O)N[C@@H](CCCNC(=N)N)C(=O)N[C@@H](C)C(=O)NCC(=O)NCC(=O)NCC(=O)NCC(=O)N[C@@H](CCCNC(=N)N)C(=O)NCC(=O)N[C@@H](CC(=O)O)C(=O)O [X11] (X48-RGADRAGGGGRGD-OH)

AUC(0-inf): 29200 ± 8180 ng·h/mL
MRT inf: 52.2 ± 9.78 h
clearance: 0.572 mL/min/kg
half-life: 36.2 ± 0.25 h
Structure (SMILES): C[C@H](NC(=O)CNC(=O)[C@H](CCCNC(=N)N)NC(=O)CCCCCCCCCCCCN1C(=O)C=CC1=O)C(=O)N[C@@H](CC(=O)O)C(=O)N[C@@H](CCCNC(=N)N)C(=O)N[C@@H](C)C(=O)NCC(=O)NCC(=O)NCC(=O)NCC(=O)N[C@@H](CCCNC(=N)N)C(=O)NCC(=O)N[C@@H](CC(=O)O)C(=O)O [X12] (X62-RGADRAGGGGRGD-OH)

AUC(0-inf): 31400 ± 8390 ng·h/mL
MRT inf: 56.3 ± 13.6 h
clearance: 0.53 mL/min/kg
half-life: 39 ± 0.24 h
Structure (SMILES): C[C@H](NC(=O)CNC(=O)[C@H](CCCNC(=N)N)NC(=O)CCCCc1ccccc1N1C(=O)C=CC1=O)C(=O)N[C@@H](CC(=O)O)C(=O)N[C@@H](CCCNC(=N)N)C(=O)N[C@@H](C)C(=O)NCC(=O)NCC(=O)NCC(=O)NCC(=O)N[C@@H](CCCNC(=N)N)C(=O)NCC(=O)N[C@@H](CC(=O)O)C(=O)O [X16] (X47-RGADRAGGGGRGD-OH)
